What was measured:
[1] = tested on: A549; assay: Antiproliferative activity against human A549 cells assessed as cell growth inhibition by SRB assay; format: functional
[2] = tested on: HCT-116; assay: Antiproliferative activity against human HCT-116 cells measured after 24 hrs by MTT assay; format: functional, cell-based; settings: HCT-116, 24 h
[3] = tested on: K562; assay: Antiproliferative activity against human K562 cells assessed as cell growth inhibition by SRB assay; format: functional
[4] = tested on: MCF7; assay: Antiproliferative activity against human MCF7 cells assessed as cell growth inhibition by SRB assay; format: functional
[5] = tested on: HeLa; assay: Antiproliferative activity against human HeLa cells measured after 24 hrs by MTT assay; format: functional, cell-based
[6] = tested on: HepG2; assay: Antiproliferative activity against human HepG2 cells measured after 24 hrs by MTT assay; format: functional, cell-based; settings: HepG2, 24 h
[7] = tested on: HeLa; assay: Antiproliferative activity against human HeLa cells assessed as cell growth inhibition by SRB assay; format: functional
[8] = molecular target: Histone deacetylase; assay: Inhibition of HDAC (unknown origin); format: protein assay, Homo sapiens
[9] = tested on: HCT-116; assay: Antiproliferative activity against human HCT-116 cells measured after 72 hrs by MTT assay; format: functional, cell-based; settings: HCT-116, 72 h
[10] = tested on: A549; assay: Antiproliferative activity against human A549 cells measured after 72 hrs by MTT assay; format: functional, cell-based; settings: A549, 72 h
[11] = tested on: MCF7; assay: Antiproliferative activity against human MCF7 cells measured after 72 hrs by MTT assay; format: functional, cell-based; settings: MCF7, 72 h
[12] = tested on: MCF7; assay: cells; settings: Homo sapiens
[13] = molecular target: T1, Protein deacetylase HDAC6 (Homo sapiens, UniProt Q9UBN7); assay: Inhibition of HDAC6 (unknown origin)
T1 sequence (Q9UBN7 whole entry): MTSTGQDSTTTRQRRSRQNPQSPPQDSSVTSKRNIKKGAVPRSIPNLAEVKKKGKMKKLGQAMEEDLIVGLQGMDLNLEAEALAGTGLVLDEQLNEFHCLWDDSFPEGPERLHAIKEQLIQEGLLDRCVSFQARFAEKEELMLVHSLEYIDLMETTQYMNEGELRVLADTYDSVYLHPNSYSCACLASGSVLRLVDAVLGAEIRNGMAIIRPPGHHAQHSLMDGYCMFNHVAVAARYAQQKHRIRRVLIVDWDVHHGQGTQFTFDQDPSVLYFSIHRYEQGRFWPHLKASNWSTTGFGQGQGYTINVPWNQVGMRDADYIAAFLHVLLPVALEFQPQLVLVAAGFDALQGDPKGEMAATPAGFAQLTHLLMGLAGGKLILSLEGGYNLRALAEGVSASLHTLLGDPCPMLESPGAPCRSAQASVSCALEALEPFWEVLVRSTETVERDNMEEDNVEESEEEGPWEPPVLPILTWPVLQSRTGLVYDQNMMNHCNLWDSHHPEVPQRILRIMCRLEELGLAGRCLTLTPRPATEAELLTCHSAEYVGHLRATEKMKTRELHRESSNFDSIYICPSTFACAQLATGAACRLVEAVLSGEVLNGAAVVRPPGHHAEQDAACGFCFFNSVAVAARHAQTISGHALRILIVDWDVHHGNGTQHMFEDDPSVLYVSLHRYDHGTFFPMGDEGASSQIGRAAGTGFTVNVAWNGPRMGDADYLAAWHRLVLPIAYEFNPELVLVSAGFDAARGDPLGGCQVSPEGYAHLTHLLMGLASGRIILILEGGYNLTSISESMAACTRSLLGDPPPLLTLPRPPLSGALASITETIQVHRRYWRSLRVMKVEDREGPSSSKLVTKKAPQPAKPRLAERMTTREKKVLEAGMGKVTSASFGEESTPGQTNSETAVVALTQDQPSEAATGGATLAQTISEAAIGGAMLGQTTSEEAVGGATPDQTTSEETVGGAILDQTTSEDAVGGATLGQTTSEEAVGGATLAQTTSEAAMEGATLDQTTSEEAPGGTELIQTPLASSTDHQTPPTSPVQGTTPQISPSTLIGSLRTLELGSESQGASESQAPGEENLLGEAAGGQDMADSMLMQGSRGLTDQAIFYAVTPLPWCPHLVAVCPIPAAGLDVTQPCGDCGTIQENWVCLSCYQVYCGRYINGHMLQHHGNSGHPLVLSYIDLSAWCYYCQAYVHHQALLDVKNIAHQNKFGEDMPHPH

[14] = tested on: NCI-H23; assay: Antiproliferative activity against human NCI-H23 cells incubated for 72 hrs by colorimetric method; format: functional, cell-based; settings: NCI-H23, 72 h
[15] = tested on: SW-620; assay: Antiproliferative activity against human SW620 cells incubated for 72 hrs by colorimetric method; format: functional, cell-based; settings: SW-620, 72 h
[16] = tested on: PC-3; assay: Antiproliferative activity against human PC-3 cells incubated for 72 hrs by colorimetric method; format: functional, cell-based; settings: PC-3, 72 h
[17] = tested on: HCT-116; assay: cells; settings: Homo sapiens
[18] = tested on: A549; assay: Antiproliferative activity against human A549 cells
[19] = tested on: HT-29; assay: Antiproliferative activity against human HT-29 cells; format: functional, cell-based
[20] = tested on: HepG2; assay: Antiproliferative activity against human HepG2 cells; format: functional, cell-based
[21] = molecular target: Histone deacetylase 1 (Homo sapiens, UniProt Q13547); assay: Inhibition of HDAC1 (unknown origin)
[22] = tested on: Jurkat; assay: Antiproliferative activity against human Jurkat cells; format: functional, cell-based
[23] = molecular target: Tyrosine-protein kinase JAK2 (Homo sapiens, UniProt O60674); assay: Inhibition of JAK2 (unknown origin)
[24] = tested on: MDA-MB-231; assay: Antiproliferative activity against human MDA-MB-231 cells
[25] = tested on: HeLa; assay: Antiproliferative activity against human HeLa cells; format: functional, cell-based
[26] = molecular target: Phosphatidylinositol 4,5-bisphosphate 3-kinase catalytic subunit alpha isoform (Homo sapiens, UniProt P42336); assay: Inhibition of PI3Kalpha (unknown origin)
[27] = tested on: A2780; assay: Antiproliferative activity against human A2780 cells; format: functional, cell-based

Histone deacetylase 1, sequence (Q13547 whole entry): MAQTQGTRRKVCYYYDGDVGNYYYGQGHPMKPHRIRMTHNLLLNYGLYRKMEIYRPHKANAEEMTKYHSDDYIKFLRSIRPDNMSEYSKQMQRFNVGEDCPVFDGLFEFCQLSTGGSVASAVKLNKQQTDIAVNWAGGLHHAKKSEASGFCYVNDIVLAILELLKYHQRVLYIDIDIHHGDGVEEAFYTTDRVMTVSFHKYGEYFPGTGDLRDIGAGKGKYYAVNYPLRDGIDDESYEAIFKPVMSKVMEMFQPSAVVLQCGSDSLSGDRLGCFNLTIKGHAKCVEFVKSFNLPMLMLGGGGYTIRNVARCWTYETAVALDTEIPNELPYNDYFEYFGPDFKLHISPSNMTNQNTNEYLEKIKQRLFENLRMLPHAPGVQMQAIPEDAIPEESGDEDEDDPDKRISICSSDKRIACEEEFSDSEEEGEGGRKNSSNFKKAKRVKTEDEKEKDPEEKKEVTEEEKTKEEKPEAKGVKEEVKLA
Phosphatidylinositol 4,5-bisphosphate 3-kinase catalytic subunit alpha isoform, sequence (P42336 whole entry, canonical isoform): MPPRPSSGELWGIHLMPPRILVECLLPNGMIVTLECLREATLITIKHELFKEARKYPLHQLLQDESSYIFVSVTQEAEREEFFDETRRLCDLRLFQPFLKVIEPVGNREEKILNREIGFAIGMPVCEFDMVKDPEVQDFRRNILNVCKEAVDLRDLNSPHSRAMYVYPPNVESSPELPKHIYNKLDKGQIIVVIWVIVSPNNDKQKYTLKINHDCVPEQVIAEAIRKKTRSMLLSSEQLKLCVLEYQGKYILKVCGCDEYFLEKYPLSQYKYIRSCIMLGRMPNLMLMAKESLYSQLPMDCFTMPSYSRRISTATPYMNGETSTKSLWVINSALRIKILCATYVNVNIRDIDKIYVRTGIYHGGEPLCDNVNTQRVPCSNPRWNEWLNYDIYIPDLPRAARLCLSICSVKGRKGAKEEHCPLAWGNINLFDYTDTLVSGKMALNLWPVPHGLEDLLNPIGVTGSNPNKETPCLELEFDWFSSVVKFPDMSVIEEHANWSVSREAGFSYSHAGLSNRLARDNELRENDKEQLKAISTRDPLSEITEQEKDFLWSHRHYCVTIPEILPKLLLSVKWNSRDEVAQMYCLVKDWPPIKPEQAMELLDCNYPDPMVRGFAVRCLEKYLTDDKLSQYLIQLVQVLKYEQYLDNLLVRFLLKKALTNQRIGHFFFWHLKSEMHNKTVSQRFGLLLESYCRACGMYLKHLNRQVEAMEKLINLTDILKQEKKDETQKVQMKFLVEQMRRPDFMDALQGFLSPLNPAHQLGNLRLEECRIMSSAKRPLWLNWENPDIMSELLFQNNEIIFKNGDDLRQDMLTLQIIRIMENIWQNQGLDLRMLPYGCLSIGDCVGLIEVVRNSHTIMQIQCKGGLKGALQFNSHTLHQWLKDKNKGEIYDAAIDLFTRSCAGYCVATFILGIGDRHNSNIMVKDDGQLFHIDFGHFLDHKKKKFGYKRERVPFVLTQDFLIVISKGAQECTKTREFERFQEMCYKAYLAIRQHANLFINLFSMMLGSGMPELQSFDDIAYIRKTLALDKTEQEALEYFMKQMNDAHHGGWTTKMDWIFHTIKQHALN
Tyrosine-protein kinase JAK2, sequence (O60674 whole entry): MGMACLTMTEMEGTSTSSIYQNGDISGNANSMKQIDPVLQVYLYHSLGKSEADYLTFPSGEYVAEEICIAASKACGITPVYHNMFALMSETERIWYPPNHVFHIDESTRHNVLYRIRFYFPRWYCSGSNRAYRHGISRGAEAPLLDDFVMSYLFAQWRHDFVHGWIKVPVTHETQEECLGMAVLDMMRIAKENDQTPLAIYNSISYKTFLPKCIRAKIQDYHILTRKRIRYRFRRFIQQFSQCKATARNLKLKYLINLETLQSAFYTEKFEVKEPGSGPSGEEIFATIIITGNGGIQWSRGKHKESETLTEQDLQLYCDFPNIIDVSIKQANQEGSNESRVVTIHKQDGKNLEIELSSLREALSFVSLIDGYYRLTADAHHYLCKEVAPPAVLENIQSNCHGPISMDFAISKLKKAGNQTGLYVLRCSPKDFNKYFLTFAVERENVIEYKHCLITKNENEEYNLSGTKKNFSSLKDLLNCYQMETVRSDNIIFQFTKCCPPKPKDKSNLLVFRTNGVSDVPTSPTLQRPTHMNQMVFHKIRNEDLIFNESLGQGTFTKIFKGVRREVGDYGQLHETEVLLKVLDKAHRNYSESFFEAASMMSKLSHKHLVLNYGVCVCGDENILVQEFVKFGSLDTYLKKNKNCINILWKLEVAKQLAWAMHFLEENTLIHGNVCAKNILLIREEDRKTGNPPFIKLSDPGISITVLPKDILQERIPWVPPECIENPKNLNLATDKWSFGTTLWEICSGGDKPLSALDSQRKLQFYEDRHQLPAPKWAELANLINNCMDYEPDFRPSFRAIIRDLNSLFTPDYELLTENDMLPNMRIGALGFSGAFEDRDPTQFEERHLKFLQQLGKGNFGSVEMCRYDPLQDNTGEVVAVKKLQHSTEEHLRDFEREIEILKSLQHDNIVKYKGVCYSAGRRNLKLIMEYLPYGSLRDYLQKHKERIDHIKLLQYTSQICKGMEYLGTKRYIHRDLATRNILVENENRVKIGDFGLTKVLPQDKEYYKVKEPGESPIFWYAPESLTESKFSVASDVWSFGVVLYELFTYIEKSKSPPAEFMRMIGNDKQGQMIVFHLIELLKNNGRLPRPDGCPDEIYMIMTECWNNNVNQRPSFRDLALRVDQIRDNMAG

COc1cccc2c1C(=O)c1c(O)c3c(c(O)c1C2=O)C[C@@](O)(C(=O)CO)C[C@@H]3O[C@H]1C[C@H](N)[C@H](O)[C@H](C)O1 [DOXORUBICIN]
GI50 [1]: < 10000 nM | IC50 [2]: 4170 nM | GI50 [3]: < 10000 nM | GI50 [4]: < 10000 nM | IC50 [5]: 4170 nM | IC50 [6]: 4170 nM | GI50 [7]: < 10000 nM

CC(C)(C)OC(=O)Nc1cccc(-c2cc(C(=O)NCCCCCCC(=O)NO)no2)c1
IC50 [8]: 5.8 nM

COc1cc2c(Oc3ccc(NC(=O)C4(C(=O)Nc5ccc(F)cc5)CC4)cc3F)ccnc2cc1OCCCN1CCOCC1 [FORETINIB]
IC50 [9]: 520 nM | IC50 [10]: 520 nM | IC50 [11]: 520 nM

CC/C(=C(\c1ccccc1)c1ccc(OCCN(C)C)cc1)c1ccccc1 [TAMOXIFEN]
IC50 [12]: 22500 nM

COc1cc(OCCCCCCC(=O)NO)ccc1C1c2ccc(O)cc2CCN1CC(C)(C)F (stereo unspecified)
IC50 [12]: 1960 nM | IC50 [13]: 26 nM

O=C(NO)c1csc(NS(=O)(=O)Nc2ccccc2)n1
IC50 [14]: 1450 nM | IC50 [15]: 1450 nM | IC50 [16]: 1450 nM

COc1ccc2c(c1)[nH]c1c(C)nccc12 [HARMINE]
IC50 [17]: > 20000 nM | IC50 [18]: > 20000 nM | IC50 [19]: > 20000 nM | IC50 [20]: > 20000 nM

Cc1cccc(Nc2nc(Nc3ccc(NC(=O)CCCCCCC(=O)NO)cc3)ncc2C)c1
IC50 [21]: 2.2 nM | IC50 [22]: 370 nM | IC50 [18]: 370 nM | IC50 [23]: 0.6 nM | IC50 [24]: 370 nM | IC50 [20]: 370 nM

CCN(CC)c1ccc2cc(C(=O)Oc3cccc(/C=C/C(=O)NO)c3)c(=O)oc2c1
IC50 [17]: 7010 nM | IC50 [12]: 7010 nM | IC50 [25]: 7010 nM | IC50 [20]: 7010 nM

CN1c2ccc(NCc3ccc(/C=C/C(=O)NO)cc3)cc2C(=O)N2CCc3c([nH]c4ccc(O)cc34)C21 (stereo unspecified)
IC50 [12]: 180 nM | IC50 [18]: 180 nM

COc1ccc2cc(C(=O)Oc3cccc(/C=C/C(=O)NO)c3)c(=O)oc2c1
IC50 [17]: 6910 nM | IC50 [12]: 6910 nM | IC50 [25]: 6910 nM | IC50 [20]: 6910 nM

CN1c2ccc(NCC3CCN(c4ncc(C(=O)NO)cn4)CC3)cc2C(=O)N2CCc3c([nH]c4ccc(O)cc34)C21 (stereo unspecified)
IC50 [12]: 230 nM | IC50 [18]: 230 nM

O=C(NO)c1csc(NS(=O)(=O)Nc2ccc(Cl)cc2)n1
IC50 [8]: 36 nM | IC50 [14]: 1450 nM | IC50 [15]: 1450 nM | IC50 [16]: 1450 nM

COc1ncc(-c2ccc3nccc(C(=O)NCCCCC(=O)NO)c3c2)cc1NS(=O)(=O)c1cc(F)cc(F)c1
IC50 [21]: 4.8 nM | IC50 [26]: 1.3 nM | IC50 [27]: 2150 nM

— ChEMBL document CHEMBL5614367, “Hydroxamic acid hybrids: Histone deacetylase inhibitors with anticancer therapeutic potency” (Eur J Med Chem, 2023)
